Experimental data: patent US8278337B2, “Substituted pyridines that are JNK inhibitors” (Merck Sharp & Dohme, priority 2006, dated 2012)
Values joined by “and” are separate entries in the source; they are usually repeats but may differ in a detail not shown here. Equal entries are not always repeated.

biological target: JNK1 (Homo sapiens, UniProt P45983); test: DELFIA kinase assay, JNK1; format: biochemical; details: DELFIA assay, 2 nM JNK1, 7 uM ATP, 10 min pre-incubation
Method: Assay DELFIA (Dissociation Enhanced Lanthanide Fluorescence Immuno-Assay) Assay:
Before initiation of kinase reactions, compounds were pre-incubated with the enzyme for 10 minutes. Pre-incubation reactions contained 50 mM HEPES pH 7.3, 10 mM MgCl2, 1 mM DTT, 75 mM NaCl, 1 mM EDTA, 1 mM EGTA, 0.01% CHAPS, 2 nM JNK1, 6 ug/mL biotinylated GST-ATF2, 0.1 mg/ml BSA, 5% DMSO and 0-100 μM compound in a total volume of 40 μL. After a 10 minute room temperature pre-incubation, 10 μL of 35 μM ATP was added to start the reaction (final concentration of ATP=7 uM). Reactions were incubated at room temperature for 30 minutes. A small aliquot (10 uL) was taken and quenched by adding into 190 uL of DELFIA Assay buffer containing 100 mM EDTA. The amount of phosphate transferred to biotinylated GST-ATF2 was measured using the Dissociation Enhanced Lanthanide Fluorescence Immuno-assay (DELFIA) from Perkin Elmer according to manufacturers protocol. Briefly, biotinylated GST-ATF2 was captured on streptavidin coated plates for 1 hour, washed twice, then incubated for 1 hour with a 1:1000 dilution of rabbit-anti-phospho-ATF2 antibody and a 1:3500 dilution of Europium-labeled anti-rabbit secondary antibody. Free antibody was removed with six washes, Europium was dissociated from the antibody, and Europium fluorescence was measured using an excitation wavelength of 340 nm and an emission wavelength of 615 nm. JNK2 and JNK3 kinase reactions were carried out similarly, with the exception that the final concentration of ATP was 4 uM and 2 uM, respectively.

Chain of JNK1 (P45983 whole entry, species assumed): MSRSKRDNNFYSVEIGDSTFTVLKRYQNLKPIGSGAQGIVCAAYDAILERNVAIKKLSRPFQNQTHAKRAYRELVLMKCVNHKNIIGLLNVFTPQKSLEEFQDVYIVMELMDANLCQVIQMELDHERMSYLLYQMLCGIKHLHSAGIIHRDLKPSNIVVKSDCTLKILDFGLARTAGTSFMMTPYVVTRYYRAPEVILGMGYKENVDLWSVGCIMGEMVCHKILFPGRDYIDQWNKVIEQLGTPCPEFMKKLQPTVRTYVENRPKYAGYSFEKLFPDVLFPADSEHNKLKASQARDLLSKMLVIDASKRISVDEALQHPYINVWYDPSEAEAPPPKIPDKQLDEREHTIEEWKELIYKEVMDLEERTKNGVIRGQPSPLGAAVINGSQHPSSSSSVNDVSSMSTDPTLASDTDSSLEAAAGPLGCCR

Row | Compound | IC50
1 | Cc1ccc2cc(-n3cc(CNC(=O)c4cccc(C(=O)NC(C)C)n4)cn3)ccc2n1 [Compound 149] | 14 nM

same assay, conditions: DELFIA assay, 2 nM JNK1, 7 uM ATP, 10 min pre-incubation; second table; read-out: JNK 1 IC50

Row | Compound | IC50
2 | Cc1ccc2cc(-n3cc(CNC(=O)c4cccc(C(=O)NC(C)C)n4)cn3)ccc2n1 [Compound 149] | 14 nM

same assay, conditions: DELFIA, biotinylated GST-ATF2 substrate, 10 minute pre-incubation, final ATP 7 uM

Row | Compound | IC50
3 | CCOC(=O)N1CCC(NC(=O)c2cccc(C(=O)NCc3ccc4c(c3)OCO4)c2)CC1 [Compound 372] | > 1000 nM
4 | CC(C)NC(=O)c1cccc(C(=O)NCc2ccc(-c3ccc(C#N)cc3)nc2)n1 [Compound 179] | 102 to 959 nM
5 | Cc1ccc(-c2ccc(CNC(=O)c3cccc(C(=O)NC(C)C)n3)cn2)cc1 [Compound 177] | 102 to 959 nM
6 | CCOC(=O)N1CCC(NC(=O)c2cccc(C(=O)NCc3ccc(-n4cccn4)cc3)n2)CC1 [Compound 72] | 102 to 959 nM
7 | CC(C)NC(=O)c1cccc(C(=O)NCc2cnn(-c3cccc(F)c3)c2)n1 [Compound 139] | 4 to 97 nM
8 | CC(C)NC(=O)c1cccc(C(=O)NCc2ccnn2-c2ccc(S(C)(=O)=O)cc2)n1 [Compound 310] | > 1000 nM and 1030 to 10000 nM
9 | Cc1nc2ccc(CNC(=O)c3cccc(C(=O)NC(C)C)n3)cc2n1C [Compound 128] | 102 to 959 nM
10 | CCOC(=O)N1CCC(NC(=O)c2cccc(C(=O)NCc3ccc(OC)c(OC)c3)n2)CC1 [Compound 74] | 102 to 959 nM
11 | CC(C)[C@H](CO)NC(=O)c1cccc(C(=O)NCc2ccc3nc(N)sc3c2)n1 [Compound 59] | > 1000 nM
12 | Cc1ccnn1-c1cccc(C(=O)NCc2ccc(S(C)(=O)=O)cc2)n1 [Compound 325] | 1030 to 10000 nM and > 1000 nM
13 | CCNC(=O)c1cc(Cl)cc(C(=O)NCc2ccc(S(C)(=O)=O)cc2)n1 [Compound 408] | > 1000 nM and 1030 to 10000 nM
14 | CC(C)NC(=O)c1cccc(C(=O)NCc2cccc(-c3ccccc3)c2)n1 [Compound 125] | 4 to 97 nM
15 | O=C(Nc1cccnc1)c1cccc(-n2cc(I)cn2)n1 [Compound 288] | > 1000 nM and 1030 to 10000 nM
16 | CC(C)CN(C)c1cccc(C(=O)NCc2ccc(S(C)(=O)=O)cc2)n1 [Compound 338] | > 1000 nM and 1030 to 10000 nM
17 | CC(C)NC(=O)c1cccc(C(=O)NCc2ccc(-n3cccn3)cc2)n1 [Compound 109] | 102 to 959 nM
18 | CCNC(=O)Oc1cccc2ccc(C(=O)NCc3ccc(S(C)(=O)=O)cc3)nc12 [Compound 384] | > 1000 nM and 1030 to 10000 nM
19 | Nc1nc2ccc(CNC(=O)c3cccc(C(=O)NCCCO)n3)cc2s1 [Compound 17] | > 1000 nM
20 | CC[C@@H](CO)NC(=O)c1cccc(C(=O)NCc2ccc3nc(N)sc3c2)n1 [Compound 9] | 4 to 97 nM
21 | C[C@@H](CO)NC(=O)c1cccc(C(=O)NCc2ccc3nc(N)sc3c2)n1 [Compound 6] | 4 to 97 nM
22 | Cc1ccc2cc(-n3cc(CNC(=O)c4cccc(C(=O)NC(C)C)n4)cn3)ccc2n1 [Compound 149] | 4 to 19 nM and 4 to 97 nM
23 | CCOC(=O)N1CCC(NC(=O)c2cccc(NCc3ccc4c(c3)OCO4)n2)CC1 [Compound 392] | > 1000 nM
24 | CC(C)NC(=O)c1cccc(C(=O)NCc2ccc3nc(NC(C)C)sc3c2)n1 [Compound 201] | 4 to 97 nM
25 | CCOC(=O)N1CCC(NC(=O)c2cccc(C(=O)NCC(C)C)n2)CC1 [Compound 41] | > 1000 nM
26 | CCOC(=O)Nc1cccc(C(=O)NC2CCN(C(=O)OCC)CC2)n1 [Compound 400] | > 1000 nM and 1030 to 10000 nM

Row | Compound | IC50
27 | CC(C)NC(=O)c1cccc(C(=O)NCc2cnn(-c3ccc(S(=O)(=O)N4CCN(C(=O)OC(C)(C)C)CC4)c(Cl)c3)c2)n1 [Compound 247] | 4 to 97 nM
28 | CC(C)NC(=O)c1cccc(C(=O)NCc2ccc(-c3ccc(S(C)(=O)=O)cc3)nc2)n1 [Compound 181] | 102 to 959 nM
29 | O=C(NCc1cnn(-c2cccc(C(F)(F)F)c2)c1)c1cccc(N2Cc3ccccc3C2)n1 [Compound 344] | > 1000 nM
30 | Nc1nc2ccc(CNC(=O)c3cccc(C(=O)NCCc4ccccc4)n3)cc2s1 [Compound 27] | > 1000 nM
31 | Nc1nc2ccc(CNC(=O)c3cccc(C(=O)NC4CCCC4)n3)cc2s1 [Compound 67] | 102 to 959 nM
32 | CS(=O)(=O)c1ccc(CNC(=O)c2cccc(C(=O)NC3CCN(c4ccc5ccccc5n4)CC3)n2)cc1 [Compound 276] | > 1000 nM
33 | CC(C)NC(=O)c1cccc(C(=O)NCc2ccccn2)n1 [Compound 101] | 1030 to 10000 nM and > 1000 nM
34 | CC(C)NC(=O)c1cccc(-n2cc(I)cn2)n1 [Compound 287] | > 1000 nM and 1030 to 10000 nM
35 | CC(C)NC(=O)c1cccc(C(=O)NCc2cccc(-c3cccc(C#N)c3)c2)n1 [Compound 189] | 4 to 97 nM
36 | Nc1nc2ccc(CNC(=O)c3cccc(C(=O)O)n3)cc2s1 [Compound 46] | > 1000 nM
37 | O=C(NCc1cnn(-c2ccccc2)c1)c1cccc(-n2cc(I)cn2)n1 [Compound 291] | 102 to 959 nM
38 | CCNC(=O)N1CCC(NC(=O)c2cccc(C(=O)NCc3ccc(S(C)(=O)=O)cc3)n2)CC1 [Compound 56] | > 1000 nM
39 | CCOC(=O)N1CCC(NC(=O)c2cccc(NC(C)=O)n2)CC1 [Compound 399] | > 1000 nM and 1030 to 10000 nM
40 | CCOC(=O)N1CCC(NC(=O)c2cccc(NCc3cccnc3)n2)CC1 [Compound 391] | > 1000 nM
41 | Cc1nn(-c2ccccc2)c(C)c1CNC(=O)c1cccc(C(=O)NC(C)C)n1 [Compound 105] | 1030 to 10000 nM and > 1000 nM
42 | CNCCNc1nc2ccc(CNC(=O)c3cccc(C(=O)NC(C)C)n3)cc2s1 [Compound 203] | 4 to 97 nM
43 | Nc1nc2ccc(CNC(=O)c3cccc(C(=O)N[C@H](CO)c4ccccc4)n3)cc2s1 [Compound 51] | 102 to 959 nM
44 | COC(=O)[C@H](C)NC(=O)c1cccc(C(=O)NCc2ccc3nc(N)sc3c2)n1 [Compound 75] | 102 to 959 nM
45 | CNS(=O)(=O)c1ccc(-n2cc(CNC(=O)c3cccc(C(=O)NC(C)C)n3)cn2)cc1 [Compound 244] | 4 to 19 nM and 4 to 97 nM
46 | CCOC(=O)N1CCC(NC(=O)c2cccc(C(=O)N(C)C)n2)CC1 [Compound 38] | > 1000 nM
47 | CS(=O)(=O)c1ccc(-n2cc(CNC(=O)c3cccc(-n4cc(-c5ccc(F)cc5)cn4)n3)cn2)cc1 [Compound 296] | 102 to 959 nM
48 | CS(=O)(=O)c1ccc(CNC(=O)c2cccc(-c3cc4ccccc4[nH]3)n2)cc1 [Compound 339] | > 1000 nM and 1030 to 10000 nM
49 | CC(C)NC(=O)c1cccc(C(=O)NCc2ccc(-c3ccc(C#N)cc3)cc2)n1 [Compound 195] | 102 to 959 nM
50 | CC(C)NC(=O)c1cccc(C(=O)NCc2ccc(-c3cccc(F)c3)nc2)n1 [Compound 175] | 4 to 97 nM

Row | Compound | IC50
51 | Cc1nc2ccc(CNC(=O)c3cccc(-n4cc(I)cn4)n3)cc2[nH]1 [Compound 290] | 102 to 959 nM
52 | CC(C)NC(=O)c1cccc(C(=O)NCc2ccc(S(N)(=O)=O)cc2)n1 [Compound 98] | 102 to 959 nM
53 | CC(C)NC(=O)c1cccc(C(=O)NCc2ccc(-c3cc(Cl)cc(Cl)c3)nc2)n1 [Compound 185] | 102 to 959 nM
54 | CC(C)NC(=O)c1cccc(C(=O)NCc2cnn(-c3ccc4nccn4c3)c2)n1 [Compound 210] | 4 to 97 nM
55 | CCOC(=O)N1CCC(NC(=O)c2cccc(Nc3ccc4ncccc4c3)n2)CC1 [Compound 389] | > 1000 nM
56 | COc1ccc(CNC(=O)c2cccc(C(=O)NC(C)C)n2)cc1OC [Compound 111] | 102 to 959 nM
57 | CC(C)NC(=O)c1cccc(C(=O)NCc2cnn(-c3ccc4nc(C(C)C)n(C)c4c3)c2)n1 [Compound 235] | 4 to 19 nM and 4 to 97 nM
58 | CC(C)NC(=O)c1cccc(C(=O)NCc2cnn(-c3ccc4[nH]cnc4c3)c2)n1 [Compound 148] | 4 to 97 nM
59 | CS(=O)(=O)c1ccc(CNC(=O)c2cccc(-n3cc(-c4cnccn4)cn3)n2)cc1 [Compound 335] | 102 to 959 nM
60 | NC(=O)c1cccc(C(=O)NCc2ccc3nc(N)sc3c2)n1 [Compound 52] | 102 to 959 nM
61 | CC(=O)Nc1cccc(C(=O)NCc2cnn(-c3cccc(C(F)(F)F)c3)c2)n1 [Compound 353] | 102 to 959 nM
62 | CC(C)C(=O)Nc1cccc(C(=O)NCc2cnn(-c3cccc(C(F)(F)F)c3)c2)n1 [Compound 354] | 102 to 959 nM
63 | CC(C)NC(=O)c1cccc(C(=O)NCc2ccc(S(C)(=O)=O)cc2)n1 [Compound 88] | 102 to 959 nM
64 | O=C(NCc1cnn(-c2cccc(C(F)(F)F)c2)c1)c1cccc(-c2cc3ccccc3[nH]2)n1 [Compound 347] | 1030 to 10000 nM and > 1000 nM
65 | CC(C)NC(=O)c1cccc(C(=O)NCc2cnn(-c3ccc(CN)cc3)c2)n1 [Compound 143] | 4 to 97 nM
66 | CC(C)NC(=O)c1cccc(C(=O)NCc2cnn(-c3cc(Br)cc(C#N)c3)c2)n1 [Compound 155] | 4 to 97 nM
67 | O=C(NCc1cnn(-c2cccc(C(F)(F)F)c2)c1)c1cccc(N2CCOCC2)n1 [Compound 345] | 1030 to 10000 nM and > 1000 nM
68 | CC(C)NC(=O)c1cccc(C(=O)NCc2cncc(-c3cccc(S(C)(=O)=O)c3)c2)n1 [Compound 256] | 4 to 97 nM
69 | CC(C)NC(=O)c1cccc(C(=O)NCc2nc3ccccc3[nH]2)n1 [Compound 106] | 102 to 959 nM
70 | CC(C)NC(=O)c1cccc(C(=O)NCc2cn[nH]c2)n1 [Compound 119] | > 1000 nM and 1030 to 10000 nM
71 | CC(C)NC(=O)c1cccc(C(=O)NCc2cnn(-c3ncccn3)c2)n1 [Compound 160] | 102 to 959 nM
72 | CC(C)NC(=O)c1cccc(C(=O)NCc2cnn(-c3ccc4ncn(C)c4c3)c2)n1 [Compound 147] | 4 to 97 nM
73 | CC(C)NC(=O)c1cccc(C(=O)NCc2ccc(-c3ccccc3)cc2)n1 [Compound 112] | 102 to 959 nM
74 | CC(C)NC(=O)c1cccc(C(=O)NCc2ccc(-c3cccc(C(F)(F)F)c3)nc2)n1 [Compound 183] | 102 to 959 nM
